ChEMBL document CHEMBL3045865, “Synthesis and antitumor activity of new pyrido[2,3-d]pyrimidine derivatives” (2013)
Active and inactive are the calls of the source. The rule behind the calls is not given here.

What was measured:
[1] = Induction of bleomycin-dependent DNA damage at 0.1 mg/ml after 1 hr
[2] = Antineoplastic activity against Mus musculus (mouse) EACs transplanted in Swiss albino Mus musculus (mouse) assessed as increase in hemoglobin level at 5 mg/kg, ip administered 9 days measured on day 14 (reference value: 8.7 g%); assay type: functional, Ehrlich; conditions: route intraperitoneal
[3] = Antineoplastic activity against Mus musculus (mouse) EACs transplanted in Swiss albino Mus musculus (mouse) assessed as increase in hematocritis level at 5 mg/kg, ip administered 9 days measured on day 14 (reference value: 35.5 g%); assay type: functional, Ehrlich; conditions: route intraperitoneal
[4] = Antineoplastic activity against Mus musculus (mouse) EACs transplanted in Swiss albino Mus musculus (mouse) assessed as decrease in WBC level at 5 mg/kg, ip administered 9 days measured on day 14 (reference value: 38.6 10^3/mm3); assay type: functional, Ehrlich; conditions: route intraperitoneal
[5] = Antineoplastic activity against Mus musculus (mouse) EACs transplanted in Swiss albino mouse assessed as increase in life span at 20 mg/kg, ip after 9 days (reference value: 9.1%); assay type: functional, Ehrlich; conditions: route intraperitoneal
Ehrlich = assay: Antineoplastic activity against Mus musculus (mouse) EACs transplanted in Swiss albino mouse assessed as reduction in viable tumor cell count at 5 mg/kg, ip after 5 days by Giemsa staining; assay type: functional, organism-based; parameters: dose 5 mg/kg
[6] = Antineoplastic activity against Mus musculus (mouse) EACs transplanted in Swiss albino mouse assessed as increase in life span at 5 mg/kg, ip after 9 days (reference value: 9.1%); assay type: functional, Ehrlich; conditions: route intraperitoneal

Compound	Activity [1]	further results
O=C(CN1CCN(c2ccccc2)CC1)NNC(=O)c1cc(=O)[nH]c2[nH]c(=O)[nH]c(=O)c12	Active	–
O=C(CCl)Sc1nnc(-c2cc(=O)[nH]c3[nH]c(=O)[nH]c(=O)c23)n1-c1ccc(F)cc1	Active	–
O=C(NNC(=S)Nc1ccc(F)cc1)c1cc(=O)[nH]c2[nH]c(=O)[nH]c(=O)c12	Active	–
COc1ccc(/C=N/NC(=O)c2cc(=O)[nH]c3[nH]c(=O)[nH]c(=O)c23)cc1	Active	–
NNC(=O)c1cc(=O)[nH]c2[nH]c(=O)[nH]c(=O)c12	Active	–
O=c1[nH]cc(F)c(=O)[nH]1 [FLUOROURACIL]	–	Activity [2]: 10 g%; Activity [3]: 42.3%; Activity [4]: 13.8 ×10³ /mm3; Activity [5]: 16.7%
O=C(N/N=C/c1cccc([N+](=O)[O-])c1)c1cc(=O)[nH]c2[nH]c(=O)[nH]c(=O)c12	Active	–
O=C(CN1CCN(c2ccccc2)CC1)Sc1nnc(-c2cc(=O)[nH]c3[nH]c(=O)[nH]c(=O)c23)n1-c1ccc(F)cc1	Active	–
O=c1cc(-c2nnc(S)n2-c2ccccc2)c2c(=O)[nH]c(=O)[nH]c2[nH]1	Active	Activity (Ehrlich): Active; Activity [2]: 11.7 g%; Activity [3]: 51.6%; Activity [4]: 11.2 ×10³ /mm3; Activity [6]: 18.6%
O=C(CCl)NNC(=O)c1cc(=O)[nH]c2[nH]c(=O)[nH]c(=O)c12	Active	–
O=c1cc(-c2nnc(S)n2-c2ccc(F)cc2)c2c(=O)[nH]c(=O)[nH]c2[nH]1	Active	–
COC(=O)c1cc(=O)[nH]c2[nH]c(=O)[nH]c(=O)c12	Active	–
O=C(NNC(=S)Nc1ccccc1)c1cc(=O)[nH]c2[nH]c(=O)[nH]c(=O)c12	Active	–
COc1ccc(N2CCN(CC(=O)NNC(=O)c3cc(=O)[nH]c4[nH]c(=O)[nH]c(=O)c34)CC2)cc1	Active	–
